According to patent publication US9163256B2, “Mutant receptors and their use in a nuclear receptor-based inducible gene expression system” (priority 2004, dated 2015):
pEC50: −log10 of the molar value.

Assays:
Experiment in all cases: GAL4-driven luciferase reporter assay in NIH3T3 cells
Format in all cases: cell-based
CfEcR-DEF mutant M125N = CfEcR-DEF mutant M125N (Choristoneura fumiferana, UniProt O77255, M408N)
Procedure: (§1) This construct was prepared in the same way as in switch 1.1 above except wild-type CfEcR-DEF was replaced with mutant CfEcR-DEF comprising a ligand binding domain comprising a substitution mutation selected from Table 1 below.
(§2) DNAs were transfected into mouse NIH3T3 cells (ATCC) as follows. Standard methods for culture and maintenance of the cells were followed. Cells were harvested and plated 96-well plates at 2,500 cells per well, in 50 μL of growth medium containing 10% fetal bovine serum (FBS). Twenty-four hours later, the cells were treated with 35 μL of serum-free growth medium containing either dimethylsulfoxide (DMSO; control) or a DMSO solution of ligand. The cells were then transfected using Superfect (Qiagen Inc.) transfection reagent. For each well, 0.625 μL of Superfect was mixed with 14.2 μL of serum-free growth medium. 0.16 μg of reporter construct and 0.04 μg of each receptor construct were added to the transfection reagent mix. The contents of the transfection mix were mixed in a vortex mixer and let stand at room temperature for 30 minutes. At the end of incubation, 15 μL of transfection mix was added to the cells. The cells were maintained at 37° C. and 5% CO2 for 48 hours in 5% FBS.
(§3) Reporter Assays: Cells were harvested 40 hours after adding ligands. 125 μL of passive lysis buffer (part of Dual-Luciferase reporter assay system from Promega Corporation) were added to each well of the […] plate. The plates were placed on a rotary shaker for 15 minutes. Twenty μL of lysate were assayed. Luciferase activity was measured using Dual-Luciferase reporter assay system from Promega Corporation following the manufacturer's instructions. Fold induction (FI) activities were calculated by dividing relative light units (“RLU”) in ligand treated cells with RLU in DMSO treated cells (untreated control).

CfEcR-DEF mutant M125G = CfEcR-DEF mutant M125G (Choristoneura fumiferana, UniProt O77255, M408G)
Procedure: as §1, §2, §3

CfEcR-DEF mutant M125S = CfEcR-DEF mutant M125S (Choristoneura fumiferana, UniProt O77255, M408S)
Procedure: as §1, §2, §3

CfEcR-DEF mutant L234W = CfEcR-DEF mutant L234W (Choristoneura fumiferana, UniProt O77255, L517W)
Procedure: as §1, §2, §3

CfEcR-DEF mutant M219W = CfEcR-DEF mutant M219W (Choristoneura fumiferana, UniProt O77255, M502W)
Procedure: as §1, §2, §3

CfEcR-DEF mutant M219K = CfEcR-DEF mutant M219K (Choristoneura fumiferana, UniProt O77255, M502K)
Procedure: as §1, §2, §3

CfEcR-DEF mutant W238M = CfEcR-DEF mutant W238M (Choristoneura fumiferana, UniProt O77255, W521M)
Procedure: as §1, §2, §3

CfEcR-DEF mutant M125V = CfEcR-DEF mutant M125V (Choristoneura fumiferana, UniProt O77255, M408V)
Procedure: as §1, §2, §3

CfEcR-DEF mutant T52R = CfEcR-DEF mutant T52R (Choristoneura fumiferana, UniProt O77255, T335R)
Procedure: as §1, §2, §3

CfEcR-DEF mutant F48R = CfEcR-DEF mutant F48R (Choristoneura fumiferana, UniProt O77255, F331R)
Procedure: as §1, §2, §3

CfEcR-DEF mutant M125I = CfEcR-DEF mutant M125I (Choristoneura fumiferana, UniProt O77255, M408I)
Procedure: as §1, §2, §3

CfEcR-DEF mutant L223K = CfEcR-DEF mutant L223K (Choristoneura fumiferana, UniProt O77255, L506K)
Procedure: as §1, §2, §3

CfEcR-DEF mutant T52Q = CfEcR-DEF mutant T52Q (Choristoneura fumiferana, UniProt O77255, T335Q)
Procedure: as §1, §2, §3

CfEcR-DEF mutant L132E = CfEcR-DEF mutant L132E (Choristoneura fumiferana, UniProt O77255, L415E)
Procedure: as §1, §2, §3

CfEcR-DEF mutant T52W = CfEcR-DEF mutant T52W (Choristoneura fumiferana, UniProt O77255, T335W)
Procedure: as §1, §2, §3

CfEcR-DEF mutant L223R = CfEcR-DEF mutant L223R (Choristoneura fumiferana, UniProt O77255, L506R)
Procedure: as §1, §2, §3

CfEcR-DEF mutant F48K = CfEcR-DEF mutant F48K (Choristoneura fumiferana, UniProt O77255, F331K)
Procedure: as §1, §2, §3

CfEcR-DEF mutant T52G = CfEcR-DEF mutant T52G (Choristoneura fumiferana, UniProt O77255, T335G)
Procedure: as §1, §2, §3

CfEcR-DEF mutant L234R = CfEcR-DEF mutant L234R (Choristoneura fumiferana, UniProt O77255, L517R)
Procedure: as §1, §2, §3

CfEcR-DEF mutant I51M = CfEcR-DEF mutant I51M (Choristoneura fumiferana, UniProt O77255, I334M)
Procedure: as §1, §2, §3

[1] = NIH3T3, 40 h, read-out: Rel Max FI

Sequence of CfEcR-DEF mutant M125V (O77255 entry or part of it M408V): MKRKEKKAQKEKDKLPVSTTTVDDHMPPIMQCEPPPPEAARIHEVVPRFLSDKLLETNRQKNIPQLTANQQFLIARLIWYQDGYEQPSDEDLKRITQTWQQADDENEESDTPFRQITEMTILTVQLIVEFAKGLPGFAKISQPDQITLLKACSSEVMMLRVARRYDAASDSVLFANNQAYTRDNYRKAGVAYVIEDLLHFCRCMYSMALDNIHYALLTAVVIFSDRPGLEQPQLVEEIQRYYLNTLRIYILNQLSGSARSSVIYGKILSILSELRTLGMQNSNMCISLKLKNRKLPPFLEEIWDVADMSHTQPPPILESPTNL
Sequence of CfEcR-DEF mutant M125V (P28702 299-449, further chain): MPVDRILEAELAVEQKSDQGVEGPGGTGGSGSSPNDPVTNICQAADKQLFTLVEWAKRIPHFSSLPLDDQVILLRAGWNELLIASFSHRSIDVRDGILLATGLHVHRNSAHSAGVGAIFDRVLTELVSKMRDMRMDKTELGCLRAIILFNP
Sequence of CfEcR-DEF mutant M125N (O77255 entry or part of it M408N): as the sequence (O77255 entry or part of it M408V) above, with V190N counted along it
Sequence of CfEcR-DEF mutant M125N (P28702 299-449, further chain): as the sequence (P28702 299-449, further chain) above
Sequence of CfEcR-DEF mutant T52G (O77255 entry or part of it T335G): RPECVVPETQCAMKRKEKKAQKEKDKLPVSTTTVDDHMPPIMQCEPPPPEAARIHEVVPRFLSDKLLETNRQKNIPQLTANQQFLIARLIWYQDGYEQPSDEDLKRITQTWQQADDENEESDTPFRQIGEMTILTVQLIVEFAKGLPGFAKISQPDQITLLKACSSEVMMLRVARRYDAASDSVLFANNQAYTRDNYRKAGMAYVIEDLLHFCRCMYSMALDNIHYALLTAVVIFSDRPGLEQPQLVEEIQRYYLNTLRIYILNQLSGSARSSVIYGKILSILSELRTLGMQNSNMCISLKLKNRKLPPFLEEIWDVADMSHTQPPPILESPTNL
Sequence of CfEcR-DEF mutant T52G (P28702 298-449, further chain): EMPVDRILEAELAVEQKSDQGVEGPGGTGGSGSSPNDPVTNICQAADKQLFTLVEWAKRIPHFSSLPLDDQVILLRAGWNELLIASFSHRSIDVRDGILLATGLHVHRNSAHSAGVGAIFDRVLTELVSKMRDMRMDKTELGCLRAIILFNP
Sequence of CfEcR-DEF mutant L223R (O77255 entry or part of it L506R): as the sequence (O77255 entry or part of it M408V) above, with V190M, L288R counted along it
Sequence of CfEcR-DEF mutant L223R (P28702 299-449, further chain): as the sequence (P28702 299-449, further chain) above
Sequence of CfEcR-DEF mutant L132E (O77255 entry or part of it L415E): as the sequence (O77255 entry or part of it T335G) above, with G129T, L209E counted along it
Sequence of CfEcR-DEF mutant L132E (P28702 298-449, further chain): as the sequence (P28702 298-449, further chain) above
Sequence of CfEcR-DEF mutant L223K (P28702 298-449): as the sequence (P28702 298-449, further chain) above
Sequence of CfEcR-DEF mutant L223K (O77255 entry or part of it L506K): as the sequence (O77255 entry or part of it T335G) above, with G129T, L300K counted along it
Sequence of CfEcR-DEF mutant T52W (O77255 entry or part of it T335W): as the sequence (O77255 entry or part of it M408V) above, with T117W, V190M counted along it
Sequence of CfEcR-DEF mutant T52W (P28702 299-449, further chain): as the sequence (P28702 299-449, further chain) above
Sequence of CfEcR-DEF mutant T52R (O77255 entry or part of it T335R): as the sequence (O77255 entry or part of it M408V) above, with T117R, V190M counted along it
Sequence of CfEcR-DEF mutant T52R (P28702 299-449, further chain): as the sequence (P28702 299-449, further chain) above
Sequence of CfEcR-DEF mutant F48K (O77255 entry or part of it F331K): as the sequence (O77255 entry or part of it M408V) above, with F113K, V190M counted along it
Sequence of CfEcR-DEF mutant F48K (P28702 299-449, further chain): as the sequence (P28702 299-449, further chain) above

`CCc1c(OC)cccc1C(=O)NN(C(=O)c1cc(C)cc(C)c1)C(C)(C)C` [RG-102240, N-(2-ethyl-3-methoxybenzoyl)-N′-(3,5-dimethylbenzoyl)-N′-tert-butylhydrazine] gave a pEC50 (CfEcR-DEF mutant M125N) of 5.01, an Emax (CfEcR-DEF mutant M125N; [1]) of 100% and a pEC50 (CfEcR-DEF mutant M125G) of 4.85. For the same molecule, the Emax (CfEcR-DEF mutant M125G; [1]) was 100%, the pEC50 (CfEcR-DEF mutant M125S) was 4.91 and the Emax (CfEcR-DEF mutant M125S; [1]) was 100%. It also gave a pEC50 (CfEcR-DEF mutant L234W) of 4.94, an Emax (CfEcR-DEF mutant L234W; [1]) of 100% and a pEC50 (CfEcR-DEF mutant M219W) of 5.47. For the same molecule, the Emax (CfEcR-DEF mutant M219W; [1]) was 100%, the pEC50 (CfEcR-DEF mutant M219K) was 5.54 and the Emax (CfEcR-DEF mutant M219K; [1]) was 100%. The pEC50 (CfEcR-DEF mutant W238M) was 4.98, the Emax (CfEcR-DEF mutant W238M; NIH3T3, 40 h, read-out: Rel MaxFI) was 100% and the pEC50 (CfEcR-DEF mutant M125V) was 5.79. The Emax (CfEcR-DEF mutant M125V; [1]) was 100%, the pEC50 (CfEcR-DEF mutant T52R) was 5.17 and the Emax (CfEcR-DEF mutant T52R; [1]) was 100%. The pEC50 (CfEcR-DEF mutant F48R) was 5.14, the Emax (CfEcR-DEF mutant F48R; [1]) was 100% and the pEC50 (CfEcR-DEF mutant M125I) was 5.87. The Emax (CfEcR-DEF mutant M125I; [1]) was 100%, the pEC50 (CfEcR-DEF mutant L223K) was 5.41 and the Emax (CfEcR-DEF mutant L223K; [1]) was 100%. It also gave a pEC50 (CfEcR-DEF mutant T52Q) of 5.53, an Emax (CfEcR-DEF mutant T52Q; [1]) of 100% and a pEC50 (CfEcR-DEF mutant L132E) of 6.39. The Emax (CfEcR-DEF mutant L132E; [1]) was 100%, the pEC50 (CfEcR-DEF mutant T52W) was 4.74 and the Emax (CfEcR-DEF mutant T52W; [1]) was 100%. It also gave a pEC50 (CfEcR-DEF mutant L223R) of 5.06, an Emax (CfEcR-DEF mutant L223R; [1]) of 100% and a pEC50 (CfEcR-DEF mutant F48K) of 4.96. For the same molecule, the Emax (CfEcR-DEF mutant F48K; [1]) was 100%, the pEC50 (CfEcR-DEF mutant T52G) was 5.45 and the Emax (CfEcR-DEF mutant T52G; [1]) was 100%. It also gave a pEC50 (CfEcR-DEF mutant L234R) of 4.77, an Emax (CfEcR-DEF mutant L234R; [1]) of 100% and a pEC50 (CfEcR-DEF mutant I51M) of 5.40. It also gave an Emax (CfEcR-DEF mutant I51M; [1]) of 100%.
